ChEMBL document CHEMBL1201862, “PubChem BioAssay data set” (2004)
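The compound was tested at five concentrations on cells cultured in 96-well plates, with a 48-hour exposure period. Abbreviation: GI50, concentration required for 50% inhibition of growth.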 Activity calls are given as the source filed them. Cut-off read from the data, not from the text of the source: active = GI50 up to about 1.1 µM and inactive = higher.

Assays:
Experiment in all cases: NCI tumour cell line growth inhibition, 48 h
[1] = system: DLD-1
[2] = system: DMS-273
[3] = system: KM-20L2
[4] = system: LXFL 529
[5] = system: M19-MEL
[6] = system: RXF 631
[7] = system: SNB-78
[8] = system: XF498
[9] = system: HOP-18

Structure (SMILES)	GI50 [1]	GI50 [2]	GI50 [3]	GI50 [4]	GI50 [5]	GI50 [6]	GI50 [7]	GI50 [8]	GI50 [9]
CC1CCP(=O)(c2ccccc2)CC1 (centres undefined)	> 100 µM (inactive)	> 100 µM (inactive)	> 100 µM (inactive)	> 100 µM (inactive)	> 100 µM (inactive)	> 100 µM (inactive)	> 100 µM (inactive)	> 100 µM (inactive)	–
CN(C(=O)C12C3C4C1C1C2C3C41C(O)C(C)(C)C)C(C)(C)C (centres undefined)	> 100 µM (inactive)	> 100 µM (inactive)	> 100 µM (inactive)	> 100 µM (inactive)	> 100 µM (inactive)	> 100 µM (inactive)	> 100 µM (inactive)	> 100 µM (inactive)	–
CN(C)CC1CCCC(CN(C)C)C1=NOC(=O)c1ccccc1 (centres undefined)	> 100 µM (inactive)	> 100 µM (inactive)	> 100 µM (inactive)	> 100 µM (inactive)	> 100 µM (inactive)	–	> 100 µM (inactive)	> 100 µM (inactive)	> 81.8 µM (inactive)
O=C1C=CC=CC2CC=C[C@@H](O)C12 (some centres undefined)	25.1 µM (inactive)	22.6 µM (inactive)	21 µM (inactive)	17.5 µM (inactive)	16.8 µM (inactive)	–	32.4 µM (inactive)	–	–
O=C(O)c1ccccc1NS(=O)(=O)c1ccc([N+](=O)[O-])cc1	–	> 100 µM (inactive)	> 100 µM (inactive)	> 100 µM (inactive)	–	> 100 µM (inactive)	> 100 µM (inactive)	> 100 µM (inactive)	> 100 µM (inactive)
COC(=O)NC(=O)c1cn(CCCOC(=O)CCCCCCCCC(=O)OCCCn2cc(C(=O)NC(=O)OC)c(=O)[nH]c2=O)c(=O)[nH]c1=O	> 100 µM (inactive)	> 100 µM (inactive)	> 100 µM (inactive)	> 100 µM (inactive)	> 100 µM (inactive)	50.9 µM (inactive)	78 µM (inactive)	19.3 µM (inactive)	> 100 µM (inactive)
COc1cccc2c1[C@H]1OC(=O)NC1CCCCC2 (some centres undefined)	> 100 µM (inactive)	> 100 µM (inactive)	> 100 µM (inactive)	> 100 µM (inactive)	> 100 µM (inactive)	–	> 100 µM (inactive)	–	> 100 µM (inactive)
CCN(CC)c1ccc(/N=C2/C=CC(=O)c3ncccc32)c(C)c1	3.42 µM (inactive)	8.3 µM (inactive)	13.5 µM (inactive)	2.48 µM (inactive)	10.4 µM (inactive)	14.2 µM (inactive)	9.55 µM (inactive)	2.02 µM (inactive)	10.5 µM (inactive)
CC(=O)NNc1nc(C)c(C(=O)/C=C/c2ccc(Cl)cc2)s1	> 100 µM (inactive)	> 100 µM (inactive)	> 100 µM (inactive)	–	> 100 µM (inactive)	–	> 100 µM (inactive)	–	> 100 µM (inactive)
COc1ccc2c(CCNC(C)=O)c(C(C)=O)[nH]c2c1	> 100 µM (inactive)	> 100 µM (inactive)	> 100 µM (inactive)	> 100 µM (inactive)	–	> 100 µM (inactive)	> 100 µM (inactive)	–	–
CC(C(=O)c1ccccc1)C1(O)C(=O)Nc2ccc(Cl)cc21 (centres undefined)	> 100 µM (inactive)	–	> 100 µM (inactive)	72.3 µM (inactive)	16.7 µM (inactive)	–	> 100 µM (inactive)	> 100 µM (inactive)	12.8 µM (inactive)
CSc1nc(NC2OCC(OC(C)=O)C(OC(C)=O)C2OC(C)=O)c2c(OC(C)=O)c(C)c(=O)oc2n1 (centres undefined)	> 100 µM (inactive)	–	> 100 µM (inactive)	> 100 µM (inactive)	> 100 µM (inactive)	> 100 µM (inactive)	> 100 µM (inactive)	> 100 µM (inactive)	> 100 µM (inactive)
CCc1cc2c(c3[nH]ccc13)[C@@H](C)C[C@H]2C	16.4 µM (inactive)	18 µM (inactive)	–	18 µM (inactive)	17.2 µM (inactive)	–	16.4 µM (inactive)	–	18.4 µM (inactive)
CCOC(=O)NC(=O)c1cn(CCCO)c(=O)[nH]c1=O	> 100 µM (inactive)	> 100 µM (inactive)	> 100 µM (inactive)	–	> 100 µM (inactive)	> 100 µM (inactive)	> 100 µM (inactive)	> 100 µM (inactive)	> 100 µM (inactive)
CCOC(=O)N1C(=O)C2C3C=CC(C2C1=O)C1C2C(=O)N(C(=O)OCC)C(=O)C2C31 (centres undefined)	> 87.3 µM (inactive)	> 43.7 µM (inactive)	> 77.1 µM (inactive)	> 100 µM (inactive)	> 74.5 µM (inactive)	> 100 µM (inactive)	> 100 µM (inactive)	> 100 µM (inactive)	43.4 µM (inactive)
O=C1Nc2ccccc2/C1=N/NC(=O)c1ccccc1O	29.3 µM (inactive)	–	> 100 µM (inactive)	41.3 µM (inactive)	53 µM (inactive)	–	99.8 µM (inactive)	–	56 µM (inactive)
[O-][n+]1c2cc(CN3CCOCC3)c(CN3CCOCC3)cc2[n+]([O-])c2c(O)cccc21	2.12 µM (inactive)	3.44 µM (inactive)	5.93 µM (inactive)	3.1 µM (inactive)	2.9 µM (inactive)	16.1 µM (inactive)	3.18 µM (inactive)	1.83 µM (inactive)	3.55 µM (inactive)
CC1=C(C)C(=O)c2c(cc3ccc4ccccc4n23)C1=O	> 100 µM (inactive)	> 100 µM (inactive)	–	> 100 µM (inactive)	> 100 µM (inactive)	> 100 µM (inactive)	> 100 µM (inactive)	–	> 100 µM (inactive)
CN(C)CCNC(=O)c1cccc2ccc(-c3ccc(-c4ccccc4)cc3)nc12	2.45 µM (inactive)	1.69 µM (inactive)	1.98 µM (inactive)	1.83 µM (inactive)	1.81 µM (inactive)	1.76 µM (inactive)	14 µM (inactive)	–	12.9 µM (inactive)
O=C1CCN2C(=O)CCN12	–	–	–	> 100 µM (inactive)	> 100 µM (inactive)	–	> 100 µM (inactive)	> 100 µM (inactive)	–
COC(=O)C1C(=O)O[C@@H](c2ccc(OC)cc2)C1C(=O)OC (some centres undefined)	> 100 µM (inactive)	> 100 µM (inactive)	> 100 µM (inactive)	> 100 µM (inactive)	> 100 µM (inactive)	–	–	> 100 µM (inactive)	> 100 µM (inactive)
CN(CCN(C)C(=O)CCOS(C)(=O)=O)C(=O)CCOS(C)(=O)=O	> 100 µM (inactive)	74 µM (inactive)	> 100 µM (inactive)	> 100 µM (inactive)	–	–	> 100 µM (inactive)	> 100 µM (inactive)	> 100 µM (inactive)
O=C(Nc1c(O)[nH]c(=S)[nH]c1=O)c1ccccc1	> 100 µM (inactive)	–	> 100 µM (inactive)	> 100 µM (inactive)	> 100 µM (inactive)	–	> 100 µM (inactive)	–	> 100 µM (inactive)
C/C(CCN(C)C)=N/O	–	–	8.47 µM (inactive)	0.346 µM (active)	0.798 µM (active)	–	15.8 µM (inactive)	17.8 µM (inactive)	0.4 µM (active)
CSc1nc2[nH]c(=O)c(C)nc2c(=O)[nH]1	> 100 µM (inactive)	> 100 µM (inactive)	> 100 µM (inactive)	> 100 µM (inactive)	> 100 µM (inactive)	–	–	> 100 µM (inactive)	–
CCc1nc2cc(/N=N/c3c(O)ccc4ccccc34)ccc2[nH]1	15 µM (inactive)	17.1 µM (inactive)	19.6 µM (inactive)	11.5 µM (inactive)	18.9 µM (inactive)	–	15.5 µM (inactive)	–	–
